We go through five compounds from paper PMC7865555, “Mechanistic Studies of the Antiallergic Activity of Phyllanthus amarus Schum. & Thonn. and Its Compounds” (Molecules, 2021).

As usually defined, the viability is a read-out of living cells in per cent, often relative to untreated cells. Usually Ki stands for a measure of affinity in units of concentration, obtained from inhibition or displacement.

Data set [1] deals with beta-hexosaminidase release from RBL-2H3. Nature of the data set: Inhibitory effect on beta-hexosaminidase release from RBL-2H3 (IgE/DNP-BSA). Type of data set: cell-based, rat. The protocol: The bioassay was conducted as reported by Abd Rani, et al.. In the concentration of 2 × 10^5 cells in 400 µL per well, RBL-2H3 cells were seeded and incubated for 2 h. After 2 h, the cells were sensitized with anti-DNP IgE at a concentration of 0.45 µg/mL in 100 µL per well. The cells were incubated overnight until 80% confluent. The cells were washed with 500 µL Siraganian buffer (119 mM of sodium chloride (NaCl), 5 mM of potassium chloride (KCl), 5.6 mM of glucose, 0.4 mM of magnesium chloride (MgCl2), 1 mM of calcium chloride (CaCl2), 25 mM of piperazine-N,N′-bis(2-ethanesulfonic acid) (PIPES), 40 mM of sodium hydroxide (NaOH), 0.1% BSA; pH 7.2) twice before were added with 160 µL of Siraganian buffer and incubated for 10 min. The cells were then treated with different concentrations of test samples in 20 µL. After 10 min of incubation, allergen, DNP-BSA at a concentration of 10 mg/mL were added to the cells. The cells were incubated for another 30 min. The supernatant (50 µL) was transferred into 96-well plates and was added immediately with 50 µL of the substrate ([…] p-nitrophenyl-N-acetyl-β-D-glucosaminide in 0.1 M citrate buffer, pH 4.5). The cells were further incubated for 1 h and the reaction was stopped using a 200 µL stop solution (0.1 M Na2CO3/NaHCO3, pH 10.0). The absorbance was measured using the microplate reader at 405 nm. The percentage of inhibition was measured using Equation (1). Control cell was assumed to have 100% beta-hexosaminidase release with allergen added without any treatment while the normal cell was assumed to have 0% beta-hexosaminidase release with cell without any allergen and treatment added to the well. The blank well consisted of the test sample. Ketotifen fumarate was used as a positive control. (1) Percentage inhibition % = (1− OD test sample−OD blank−OD normal/OD control−OD normal) × 100

For data set [2], the target named is T1, Histamine H1 (human) membrane preparation, in CHO-K1 cells (Homo sapiens, UniProt P35367).
T1 construct: purchased Perkin Elmer (Waltham, MA, USA); host or cells: CHO-K1 cells (recombinant expression, membrane preparation)
T1 sequence (P35367 whole entry): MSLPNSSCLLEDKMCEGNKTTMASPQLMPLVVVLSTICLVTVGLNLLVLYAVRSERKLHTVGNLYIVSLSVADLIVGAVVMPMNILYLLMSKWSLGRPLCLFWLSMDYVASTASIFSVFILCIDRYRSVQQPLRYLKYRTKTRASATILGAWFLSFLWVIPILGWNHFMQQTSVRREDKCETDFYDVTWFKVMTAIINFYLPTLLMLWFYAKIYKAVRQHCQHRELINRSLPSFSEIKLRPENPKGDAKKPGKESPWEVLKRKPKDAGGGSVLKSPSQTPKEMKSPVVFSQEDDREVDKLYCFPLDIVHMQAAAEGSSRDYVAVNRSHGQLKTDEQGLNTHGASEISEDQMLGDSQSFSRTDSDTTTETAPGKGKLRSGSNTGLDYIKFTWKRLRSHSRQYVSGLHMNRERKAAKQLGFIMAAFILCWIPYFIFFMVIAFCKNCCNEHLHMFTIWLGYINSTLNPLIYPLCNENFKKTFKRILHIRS
The data set is described as follows: Radioligand competition binding assay (3H-mepyramine). To be noted: for Ki: read-out: Radioassay (Ki). The procedure:
In determining the affinity of the ligands toward the receptor, competition radioligand binding was conducted. The assay was conducted by measuring the competition binding between a radioligand with a ligand. The concentration of the radioligand with the presence of the ligand and the receptor was determined by using a liquid scintillation counter. […] The Ki value which also known as the binding affinity of the ligand was determined using GraphPad Prism.
Pyrilamine (Mepyramine), [pyridinyl 5-3H], Membrane Target Systems: Histamine H1 (human) membrane preparation, in CHO-K1 cells, liquid scintillation cocktail (ULTIMA GOLD MV), pico pro vial, and glass fiber (GF) filter were obtained from Perkin Elmer (Waltham, MA, USA).
In preparation for bioassay analysis, 10 mg of test samples were dissolved in 1 mL of DMSO and were treated as the stock sample. […] The working test sample together with its stock sample were kept in 4 °C until further used.
The radioligand assay was conducted as reported by Strakhova and Esbenshade. […] The mixture was immediately added with 200 µL of histamine receptor membrane (5 µg protein/well). The mixture was incubated for an hour at room temperature while shaking on the shaker. After an hour incubation, the mixture was harvested on GF/B uni filter presoaked with 0.5% PEI for 3 min. The GF/B uni filter was rinsed a few times with a wash buffer before being dried for one and a half hours. Once the uni filter was dry, the punched filter was transferred to 4 mL pico pro vial and was soaked with 2 mL of liquid scintillation cocktail. The solution was vortexed for a few seconds before being quantified using the liquid scintillator. Ki value (nmol/L) was obtained by using Equation (3).
On the technique in general: Loss of bound radioactivity is the signal in a displacement assay; it reports binding, not function.

Data set [3] can be described thus: Cell viability (MTT) assay on RBL-2H3 cells. The format is cell-based, rat. To be noted: rat, RBL-2H3 cells; for viability at 4 h, 2.5 µg/mL: RBL-2H3, 2.5 µg/mL; for viability at 4 h, 5 µg/mL: RBL-2H3, 5 µg/mL; for viability at 4 h, 10 µg/mL: RBL-2H3, 10 µg/mL; for viability at 4 h, 25 µg/mL: RBL-2H3, 25 µg/mL; for viability at 4 h, 50 µg/mL: RBL-2H3, 50 µg/mL; for viability at 4 h, 100 µg/mL: RBL-2H3, 100 µg/mL. The procedure:
(§1) RBL-2H3 cells were obtained from the Japanese Collection of Research Bioresources (JCRB) cell bank with a cell number of JCRB0023. The cells were cultured in enriched media (MEM containing 10% FBS and 1% penicillin-streptomycin (10 000 U/mL)). Once the cells reaching passage 3 (P3) with 80% confluency and showing stable growth and morphology, the cells were used for the bioassays. Only cells from passage 3 (P3) to passage 5 (P5) were used for the bioassays’ studies.
(§2) The cell viability assay was conducted as reported by Shahari, et al.. RBL-2H3 cells were seeded in 96-well plates in 100 µL at the concentration of 5 × 10^5 /mL. […] The cells were incubated for 4 h. 10 µL of MTT (5 mg/mL in PBS buffer) was added to the mixture and was incubated for 4 h at 37 °C. Upon the appearance of purple formazan crystal, the media was removed and 100 µL of DMSO was added to the well plates to dissolve the crystal. After 10 min of shaking the well plates on a shaker, the absorbance was immediately measured using a microplate reader at 570 nm.

In data set [4] the test system is RBL-2H3 cell line. The data set is described as follows: Cell viability (MTT) assay on RBL-2H3 cells. Type of data set: cell-based, rat. The settings on record: for Toxicity towards the cell (in words): RBL-2H3, all concentrations tested; for Concentration safe on the cell: RBL-2H3, maintaining approximately 70% cell viability. The protocol:
as §1, §2

The test system of data set [5] is histamine release from RBL-2H3. The data set is described as follows: Inhibitory effect on histamine release from RBL-2H3 (ELISA). The format is cell-based. To be noted: Rattus norvegicus, mean ± SEM, n = 3, read-out: Inhibitory activity towards histamine release. The protocol: The bioassay was conducted as reported by Shahari, et al. and Abd Rani, et al.. In 24-well plates, 2 × 10^5 of RBL-2H3 cells were seeded in 400 µL per well. The cells were sensitized with 0.45 µg/mL anti-DNP IgE in 100 µL after two hours of incubation. The cells were incubated overnight until reaching 80% confluency. The cells were washed twice with 500 µL of enriched media before being constituted with 320 µL enriched media. After 10 min of incubation, the cells were treated with 40 µL of different concentration of test compounds and was incubated for another 10 min. The cells were treated with 20 µL of allergen, DNP-BSA (10 mg/mL), and further being incubated for another 30 min. The supernatant obtained was transferred into a microcentrifuge tube, and centrifuged for 20 min at 1000× g at 8 °C. The supernatant was transferred to the Histamine ELISA kit and the histamine quantification was conducted based on the ELISA manufacturer protocol given. The percentage of inhibition was measured using Equation (2). The control cell was assumed to have 100% histamine release with allergen added without any treatment while blank well corresponded to 0% cytokine release. Ketotifen fumarate was used as a positive control. (2) Percentage inhibition % = (1− OD test sample−OD blank/OD control−OD blank) × 100
(In general: In an ELISA, binding on a coated surface is turned into a signal by an enzyme label.)

Setting [6] is: Rattus norvegicus, mean ± SEM, n = 3, read-out: Inhibitory activity towards beta-hexosaminidase release.
Setting [7] is: pH 7.4, 1 h incubation, 3H-mepyramine.

Several values for one entry are separate records, joined by “and”; a condition that tells them apart may be missing. Identical values can stand only once. Counter-ions that a name gives are not always drawn.

As to `O=C(O[C@@H]1O[C@@H]2COC(=O)c3cc(O)c(O)c(O)c3-c3c(cc(O)c(O)c3O)C(=O)O[C@H]([C@H]1O)[C@@H]2O)c1cc(O)c(O)c(O)c1` [Corilagin (4), corilagin], in data set [1] (setting [6]), the inhibition at 10 µg/mL stood at 2.43 ± 3.26%, the inhibition at 25 µg/mL amounted to 5.12 ± 2.09% and the inhibition at 50 µg/mL was 6.68 ± 1.71%. Also, in data set [2] (competition radioligand assay), the “Affinity towards the H1 receptor (in words)” value is “did not show any affinity towards the receptor”. The “Radioassay (Ki)” value in data set [2] (setting [7]) is “Not converged”. In addition, in data set [3], the viability at 4 h, 2.5 µg/mL was 87.1 ± 4.31%; the viability at 4 h, 5 µg/mL was 81.1 ± 14.8%; the viability at 4 h, 10 µg/mL is 93.7 ± 15.4%; the viability at 4 h, 25 µg/mL was 103 ± 12.1%. Further, in data set [3], the viability at 4 h, 50 µg/mL was determined as 104 ± 7.35% and the viability at 4 h, 100 µg/mL is 101 ± 7.2%. Also, the “Toxicity towards the cell (in words)” value in data set [4] is recorded as “not toxic towards the cell”.
`COC[C@@H]1Cc2cc(OC)c3c(c2[C@H](c2ccc(OC)c(OC)c2)[C@H]1COC)OCO3` [Hypophyllanthin (2), hypophyllanthin]: the inhibition at 1.25 µg/mL in data set [5] (1.25 µg/mL) was 16.4 ± 46.6%. Moreover, in data set [5], the inhibition at 2.5 µg/mL amounted to 11.9 ± 64.3% and the inhibition at 5 µg/mL is 71.2 ± 34.7%. Also, the “Inhibition of beta-hexosaminidase release (in words)” value (“Inhibition … (in words)” below) in data set [1] is reported as “inhibited the release of beta-hexosaminidase”. The inhibition at 1.25 µg/mL in data set [1] (Rattus norvegicus, 1.25 µg/mL, mean ± SEM, n = 3, read-out: Inhibitory activity towards beta-hexosaminidase release) worked out at 23.9 ± 3.31%. In data set [1] (setting [6]), the inhibition at 2.5 µg/mL is 32.3 ± 4.99% and the inhibition at 5 µg/mL is 32.3 ± 4.51%. In addition, the inhibition constant Ki in data set [2] (setting [7]) was 0.04 nM. Further, in data set [3], the viability at 4 h, 2.5 µg/mL stood at 93 ± 9.69%; the viability at 4 h, 5 µg/mL was 91 ± 10.4%; the viability at 4 h, 10 µg/mL was determined as 114 ± 8.89%; the viability at 4 h, 25 µg/mL is 62.46 ± 0.56%. Besides, in data set [3], the viability at 4 h, 50 µg/mL came out at 40.6 ± 4.17% and the viability at 4 h, 100 µg/mL was 28.1 ± 4.13%. In addition, the “Concentration safe on the cell” value in data set [4] was “below 25 µg/mL”.
As for `CN1CCC(=C2c3ccccc3CC(=O)c3sccc32)CC1` [Ketotifen fumarate, reference compound], in data set [5], the inhibition at 5 µg/mL amounted to 3.9 ± 6.8%, the inhibition at 10 µg/mL was 44.7 ± 23% and the inhibition at 25 µg/mL is 58.7 ± 23.2%. In addition, in data set [1] (setting [6]), the inhibition at 5 µg/mL amounted to 17.7 ± 1.05%, the inhibition at 10 µg/mL was 22.2 ± 0.75% and the inhibition at 25 µg/mL was 27.4 ± 0.58%. Besides, in data set [3], the viability at 4 h, 2.5 µg/mL worked out at 91.9 ± 6.16%; the viability at 4 h, 5 µg/mL turned out to be 90.1 ± 3.89%; the viability at 4 h, 10 µg/mL worked out at 86.8 ± 6.47%; the viability at 4 h, 25 µg/mL was determined as 87.4 ± 1.17%. In addition, in data set [3], the viability at 4 h, 50 µg/mL worked out at 83.8 ± 4.1% and the viability at 4 h, 100 µg/mL turned out to be 28.9 ± 4.87%. The “Concentration safe on the cell” value in data set [4] is on record as “below 50 µg/mL”.
Consider `COC[C@H](Cc1ccc(OC)c(OC)c1)[C@H](COC)Cc1cc(OC)c2c(c1)OCO2` [Niranthin (3), niranthin], for which, in data set [5], the inhibition at 5 µg/mL was found to be 34.7 ± 12.2%, the inhibition at 10 µg/mL is 59 ± 22.2% and the inhibition at 25 µg/mL worked out at 41.2 ± 31.2%. Besides, the “Inhibition … (in words)” value in data set [1] was “inhibited the release of beta-hexosaminidase”. Besides, in data set [1] (setting [6]), the inhibition at 10 µg/mL was 29.3 ± 5.81%, the inhibition at 25 µg/mL amounted to 31.3 ± 7.43% and the inhibition at 50 µg/mL stood at 32.1 ± 7.27%. In data set [2] (setting [7]), the Ki was 0.44 nM and 0.444 nM. In data set [3], the viability at 4 h, 2.5 µg/mL was found to be 104 ± 5.79%; the viability at 4 h, 5 µg/mL was 79.4 ± 8.96%; the viability at 4 h, 10 µg/mL came out at 96.5 ± 7.33%; the viability at 4 h, 25 µg/mL worked out at 85.4 ± 11.6%. Moreover, in data set [3], the viability at 4 h, 50 µg/mL was 96.63 ± 0.63% and the viability at 4 h, 100 µg/mL was 86.3 ± 12.4%. In data set [4], the “Toxicity towards the cell (in words)” value is on record as “not toxic towards the cell”.
With `COC[C@@H](Cc1ccc(OC)c(OC)c1)[C@@H](COC)Cc1ccc(OC)c(OC)c1` [Phyllanthin (1), phyllanthin], in data set [5], the inhibition at 2.5 µg/mL is -3.05 ± 7.93%, the inhibition at 5 µg/mL amounted to 55.8 ± 19.3% and the inhibition at 10 µg/mL is -11.6 ± 70.8%. Moreover, the “Inhibition … (in words)” value in data set [1] is “inhibited the release of beta-hexosaminidase”. In data set [1] (setting [6]), the inhibition at 2.5 µg/mL is 26.4 ± 3.18%, the inhibition at 5 µg/mL was 37.9 ± 6.51% and the inhibition at 10 µg/mL was 38.4 ± 8.72%. In data set [3], the viability at 4 h, 2.5 µg/mL stood at 92 ± 1.13%; the viability at 4 h, 5 µg/mL stood at 76.6 ± 3.77%; the viability at 4 h, 10 µg/mL came out at 84.3 ± 6.83%; the viability at 4 h, 25 µg/mL was found to be 82.1 ± 4.03%. Moreover, in data set [3], the viability at 4 h, 50 µg/mL is 74.2 ± 7.99% and the viability at 4 h, 100 µg/mL was 53.5 ± 0.65%. Also, the “Concentration safe on the cell” value in data set [4] is “below 50 µg/mL”.
